These results are taken from patent US8158635B2, “Solid forms comprising 4-[9-(tetrahydro-furan-3-yl)-8-(2,4,6-trifluoro-phenylamino)-9H-purin-2-ylamino]-cyclohexan-1-ol, compositions thereof, and uses therewith” (Signal Pharmaceuticals, LLC, priority 2006, dated 2012).

Data set [1] in a line: Storage stability at stress conditions (about 40° C. and about 75% RH). The data set is classed as physicochemical. The settings on record: about 40° C. and about 75% RH for about four weeks. The method, then: In certain embodiments, Form A of the HCl salt of Compound I is substantially pure. In certain embodiments, Form A of the HCl salt of Compound I is stable upon slurry in particular solvents at particular temperatures. For example, in certain embodiments, Form A of the HCl salt is stable in, e.g., acetone, acetonitrile, ethyl acetate, heptane, MTBE, toluene, THF and mixtures of two or more thereof at about 40° C. for about four weeks. In certain embodiments, Form A of the HCl salt is stable upon storage at particular stress conditions. For example, in certain embodiments, Form A of the HCl salt of Compound I is stable upon storage at about 40° C. and about 75% RH for about four weeks.

Data set [2] in a line: Equilibration of solid form in solvent for 4 weeks at 40° C., resulting form by XRPD. The data set is classed as physicochemical. The method, then:
Equilibration slurry and evaporation experiments were carried out by adding an excess of Compound I free base or HCl salt to 2 mL of solvent. […] Upon reaching equilibrium, the saturated supernatant solution was removed and allowed to evaporate slowly in an open vial under nitrogen at 25° C. or 50° C., respectively. The slurry resulting from the equilibration was filtered and air-dried. X-ray powder diffraction (XRPD) measurements were performed in accordance with United States Pharmacopeia (USP) monograph <941> entitled “X-ray Diffraction” (See, e.g., The United States Pharmacopeia, The National Formulary, 2003, The Unites States Pharmacopeial Convention, Inc., Rockville, Md., 2002, which is herein incorporated by reference in its entirety). A Thermo ARL X'TRA X-ray powder diffractometer (Thermo Electron Corp., Waltham, Mass.), equipped with Nickel-filtered Cu Kα radiation at 1.54 Å, was used for XRPD measurements from about 1.5 °2θ to about 40 °2θ, with a step size of about 0.020°, a count time of about 0.50 seconds per step, and a step scan rate of about 2.40°/min. The instrument was equipped with a fine focus X-ray tube. The voltage and amperage were set at 45 kV and 40 mA, respectively. The divergence slits were set at 0.5 mm and 0.2 mm. Diffracted radiation was measured using a Peltier-cooled Si (Li) solid-state detector. Representative XRPD patterns were presented displaying intensity (counts per second) versus position (°2θ). A sintered alumina standard was used to check peak positions. Peak positions may vary from sample to sample by approximately ±0.1 °2θ. Variation in peak position may depend upon multiple factors, including particle size, sample preparation, data collection temperature and parameters. Variation in peak intensity may occur, e.g., as a result of preferred orientation and/or variation in crystal habit.

Counter-ions that a name gives are not always drawn.

For the molecule `OC1CCC(Nc2ncc3nc(Nc4c(F)cc(F)cc4F)n(C4CCOC4)c3n2)CC1` (stereo not shown) [Form A of the HCl salt of Compound I, 4-[9-(tetrahydro-furan-3-yl)-8-(2,4,6-trifluoro-phenylamino)-9H-purin-2-ylamino]-cyclohexan-1-ol], the “stability upon storage at stress conditions” value in data set [1] was “stable”. For the same molecule, the “Resulting Form by XRPD” value in data set [2] (Equilibrate HCl salt Form A in 2-Propanol for 4 weeks at 40° C.), in data set [2] (Equilibrate HCl salt Form A in Acetonitrile for 4 weeks at 40° C.), in data set [2] (Equilibrate HCl salt Form A in Ethyl acetate for 4 weeks at 40° C.), in data set [2] (Equilibrate HCl salt Form A in Heptane for 4 weeks at 40° C.), in data set [2] (Equilibrate HCl salt Form A in MTBE for 4 weeks at 40° C.) and in data set [2] (Equilibrate HCl salt Form A in THF for 4 weeks at 40° C.) was “Compound I HCl Salt Form A” each time. For the same molecule, the “Resulting Form by XRPD” value in data set [2] (Equilibrate HCl salt Form A in Toluene for 4 weeks at 40° C.) and in data set [2] (Equilibrate HCl salt in Acetone for 4 weeks at 40° C.) was “Compound I HCl Salt Form A” throughout. Moreover, the “stability upon slurry in solvents” value in data set [2] (acetone, acetonitrile, ethyl acetate, heptane, MTBE, toluene, THF and mixtures, about 40° C. for about four weeks) is reported as “stable”.
